The structures appear in SMILES notation.

Experimental findings from patent US11261177B2, “Benzoxazinone derivatives useful as herbicides” (REDAG CROP PROTECTION LTD, priority 2017, dated 2022) are described below.

What all share (format): in vivo
The test system of experiment [1] is Lolium perenne. The experiment is described as follows: Pre-emergence herbicidal assay, 96 cell trays, glasshouse. Conditions: 168 h, Lollium, assessed 7 days after treatment, read-out: % control of plant growth; for pest or weed control at 200 g/ha: 0.2 kg/ha; for pest or weed control at 1000 g/ha: 1 kg/ha; for pest or weed control at 5000 g/ha: 5 kg/ha. The method in brief:
(§1)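 Efficacy is expressed as % control of plant growth, judged 7 days after application. Application: soil surface 1 day post-sowing (pre) or foliar spray at two weeks (post), at 0.2, 1 or 5 kg/ha.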

Experiment [2] has as its system Stellaria media—Chickweed. Described as above. Conditions: 168 h, assessed 7 days after treatment, read-out: % control of plant growth; for pest or weed control at 200 g/ha: 0.2 kg/ha; for pest or weed control at 1000 g/ha: 1 kg/ha; for pest or weed control at 5000 g/ha: 5 kg/ha. The method in brief: as §1
Experiment [3] relates to Lolium perenne. The experiment is described as follows: Post-emergence herbicidal assay, 96 cell trays, glasshouse. Conditions: 168 h, Lollium, assessed 7 days after treatment, read-out: % control of plant growth; for pest or weed control at 200 g/ha: 0.2 kg/ha; for pest or weed control at 1000 g/ha: 1 kg/ha; for pest or weed control at 5000 g/ha: 5 kg/ha. The method in brief:
as §1

The test system of experiment [4] is Stellaria media—Chickweed. The description is as above. Conditions: 168 h, assessed 7 days after treatment, read-out: % control of plant growth; for pest or weed control at 200 g/ha: 0.2 kg/ha; for pest or weed control at 1000 g/ha: 1 kg/ha; for pest or weed control at 5000 g/ha: 5 kg/ha. The method in brief:
as §1

Experiment [5] concerns 2 weed species (Stellaria media—Chickweed and Lolium perenne). The experiment is described as follows: Herbicidal activity screen, summary in words over both weed species. Particulars: pre- and post-emergence, 0.2, 1 and 5 kg/ha. The procedure:
The compounds were screened at three concentrations (0.2, 1 and 5 kg/ha) against 2 weed species (Stellaria media—Chickweed and Lolium perenne). The seeds were sown in the cells of 96 cell trays (4-6 seeds per cell). For the pre-emergence assay, 75 μL of a suspension of the test compound, at the above doses, was added on top of the soil 1 day after sowing. For the post-emergence assay, the seedlings were sprayed with 200 μL of a suspension of the test compound two weeks after sowing. The formulation used is 25% acetone and 75% water/0.01% Tween 20. Each treatment was replicated three times. The plants were kept in a glasshouse (uncontrolled conditions) and assessed 7 days after treatment. A small number of compounds were tested in a first trial. A larger number of compounds were tested in a second trial. The assessment was based on the % control of plant growth in each cell.

On to `C#CCN1C(=O)C2(CC2)Oc2cc(F)c(-n3ncc(C(F)(F)F)c(C)c3=O)cc21` [Example 4, 7-Fluoro-6-(5-methyl-6-oxo-4-(trifluoromethyl)pyridazin-1(6H)-yl)-4-(prop-2-yn-1-yl)spiro[benzo[b][1,4]oxazine-2,1′-cyclopropan]-3(4H)-one], for which the pest or weed control at 200 g/ha (with Lolium perenne [1] (first trial (Table 1)); in the experiment with Lolium perenne [1] (second trial (Table 2)); in experiment [2] (first trial (Table 1)); in experiment [2] (second trial (Table 2)); in the experiment on Lolium perenne [3] (first trial (Table 1)); in the experiment on Lolium perenne [3] (second trial (Table 2))) was 80 to 100% each time. The pest or weed control at 200 g/ha in experiment [4] (first trial (Table 1)) was in the range of 20 to 80%; in experiment [4] (second trial (Table 2)) it was 80 to 100%. The pest or weed control at 1000 g/ha (in the experiment with Lolium perenne [1] (first trial (Table 1)); with Lolium perenne [1] (second trial (Table 2)); in experiment [2] (first trial (Table 1)); in experiment [2] (second trial (Table 2)); in the experiment with Lolium perenne [3] (first trial (Table 1)); in the experiment on Lolium perenne [3] (second trial (Table 2))) was 80 to 100% in each case. Also, the pest or weed control at 1000 g/ha was 20 to 80% in experiment [4] (first trial (Table 1)) and 80 to 100% in experiment [4] (second trial (Table 2)). For the same compound, the pest or weed control at 5000 g/ha (in the experiment with Lolium perenne [1] (first trial (Table 1)); in the experiment on Lolium perenne [1] (second trial (Table 2)); in experiment [2] (first trial (Table 1)); in experiment [2] (second trial (Table 2)); in the experiment with Lolium perenne [3] (first trial (Table 1)); with Lolium perenne [3] (second trial (Table 2))) was 80 to 100% each time. Besides, the pest or weed control at 5000 g/ha in experiment [4] (first trial (Table 1)) is 20 to 80%; in experiment [4] (second trial (Table 2)), 80 to 100%. Further, in experiment [5], the herbicidal activity entry is “excellent herbicidal activity against all tested species”.
For `C#CCN1C(=O)C2(CC2)Oc2cc(F)c(N3C(=O)c4ccc(C)cc4C3=O)cc21` [Example 8], the pest or weed control at 200 g/ha in the experiment on Lolium perenne [1] (second trial (Table 2)) is 20 to 80%; in experiment [2] (second trial (Table 2)) it was 80 to 100%; with Lolium perenne [3] (second trial (Table 2)) it was 20 to 80%; in experiment [4] (second trial (Table 2)), 80 to 100%. Also, the pest or weed control at 1000 g/ha (with Lolium perenne [1] (second trial (Table 2)); in experiment [2] (second trial (Table 2)); with Lolium perenne [3] (second trial (Table 2)); in experiment [4] (second trial (Table 2))) was 80 to 100% throughout. Further, the pest or weed control at 5000 g/ha (with Lolium perenne [1] (second trial (Table 2)); in experiment [2] (second trial (Table 2)); in the experiment with Lolium perenne [3] (second trial (Table 2)); in experiment [4] (second trial (Table 2))) was 80 to 100% in each case. The herbicidal activity entry in experiment [5] is recorded as “excellent herbicidal activity against all tested species”.
Consider `COC(=O)C(C)N1C(=O)C2(CC2)Oc2cc(F)c(N3C(=O)C4=C(CCCC4)C3=O)cc21` (stereo not shown) [Example 15], for which the pest or weed control at 200 g/ha fell in the range of 20 to 80% with Lolium perenne [1] (second trial (Table 2)), 80 to 100% in experiment [2] (second trial (Table 2)), 20 to 80% with Lolium perenne [3] (second trial (Table 2)) and 80 to 100% in experiment [4] (second trial (Table 2)). Further, the pest or weed control at 1000 g/ha (with Lolium perenne [1] (second trial (Table 2)); in experiment [2] (second trial (Table 2)); in the experiment with Lolium perenne [3] (second trial (Table 2)); in experiment [4] (second trial (Table 2))) was 80 to 100% throughout. Besides, the pest or weed control at 5000 g/ha (in the experiment with Lolium perenne [1] (second trial (Table 2)); in experiment [2] (second trial (Table 2)); in the experiment on Lolium perenne [3] (second trial (Table 2)); in experiment [4] (second trial (Table 2))) was 80 to 100% in each case. Moreover, in experiment [5], the herbicidal activity result is “excellent herbicidal activity against all tested species”.
`CCOC(=O)C(C)N1C(=O)C2(CC2)Oc2cc(F)c(N3C(=O)C4=C(CCCC4)C3=O)cc21` (stereo not shown) [Example 18]: the pest or weed control at 200 g/ha lay within 80 to 100% with Lolium perenne [1] (second trial (Table 2)), 80 to 100% in experiment [2] (second trial (Table 2)), 20 to 80% in the experiment with Lolium perenne [3] (second trial (Table 2)) and 80 to 100% in experiment [4] (second trial (Table 2)). For the same compound, the pest or weed control at 1000 g/ha (in the experiment on Lolium perenne [1] (second trial (Table 2)); in experiment [2] (second trial (Table 2)); in the experiment on Lolium perenne [3] (second trial (Table 2)); in experiment [4] (second trial (Table 2))) was 80 to 100% in each case. The pest or weed control at 5000 g/ha (in the experiment on Lolium perenne [1] (second trial (Table 2)); in experiment [2] (second trial (Table 2)); in the experiment on Lolium perenne [3] (second trial (Table 2)); in experiment [4] (second trial (Table 2))) was 80 to 100% each time. Besides, the herbicidal activity result in experiment [5] is given as “excellent herbicidal activity against all tested species”.
Regarding `CCOC(=O)C(C)N1C(=O)C2(CC2)Oc2cc(F)c(N3C(=O)c4ccc(F)cc4C3=O)cc21` (stereo not shown) [Example 19], the pest or weed control at 200 g/ha with Lolium perenne [1] (second trial (Table 2)) was 20 to 80%; in experiment [2] (second trial (Table 2)), 80 to 100%; in the experiment with Lolium perenne [3] (second trial (Table 2)), 20 to 80%; in experiment [4] (second trial (Table 2)), 80 to 100%. Moreover, the pest or weed control at 1000 g/ha (with Lolium perenne [1] (second trial (Table 2)); in experiment [2] (second trial (Table 2)); with Lolium perenne [3] (second trial (Table 2)); in experiment [4] (second trial (Table 2))) was 80 to 100% throughout. Moreover, the pest or weed control at 5000 g/ha (with Lolium perenne [1] (second trial (Table 2)); in experiment [2] (second trial (Table 2)); with Lolium perenne [3] (second trial (Table 2)); in experiment [4] (second trial (Table 2))) was 80 to 100% throughout. The herbicidal activity entry in experiment [5] is “excellent herbicidal activity against all tested species”.
For `O=C1c2ccc(F)cc2C(=O)N1c1cc2c(cc1F)OC1(CC1)C(=O)N2CC1CC1` [Example 26], the pest or weed control at 200 g/ha (in the experiment with Lolium perenne [1] (second trial (Table 2)); in experiment [2] (second trial (Table 2)); with Lolium perenne [3] (second trial (Table 2)); in experiment [4] (second trial (Table 2))) was 80 to 100% throughout. Also, the pest or weed control at 1000 g/ha (in the experiment on Lolium perenne [1] (second trial (Table 2)); in experiment [2] (second trial (Table 2)); with Lolium perenne [3] (second trial (Table 2)); in experiment [4] (second trial (Table 2))) was 80 to 100% in each case. Also, the pest or weed control at 5000 g/ha (in the experiment on Lolium perenne [1] (second trial (Table 2)); in experiment [2] (second trial (Table 2)); in the experiment with Lolium perenne [3] (second trial (Table 2)); in experiment [4] (second trial (Table 2))) was 80 to 100% each time. In addition, in experiment [5], the herbicidal activity result was “excellent herbicidal activity against all tested species”.
On to `COCCN1C(=O)C2(CC2)Oc2cc(F)c(N3C(=O)c4ccc(F)cc4C3=O)cc21` [Example 27], for which the pest or weed control at 200 g/ha in the experiment with Lolium perenne [1] (second trial (Table 2)) lay within 20 to 80%; in experiment [2] (second trial (Table 2)) it was 80 to 100%; in the experiment with Lolium perenne [3] (second trial (Table 2)), 20 to 80%; in experiment [4] (second trial (Table 2)) it was 80 to 100%. Besides, the pest or weed control at 1000 g/ha (in the experiment on Lolium perenne [1] (second trial (Table 2)); in experiment [2] (second trial (Table 2)); with Lolium perenne [3] (second trial (Table 2)); in experiment [4] (second trial (Table 2))) was 80 to 100% in each case. Further, the pest or weed control at 5000 g/ha (in the experiment with Lolium perenne [1] (second trial (Table 2)); in experiment [2] (second trial (Table 2)); in the experiment with Lolium perenne [3] (second trial (Table 2)); in experiment [4] (second trial (Table 2))) was 80 to 100% in each case. The herbicidal activity result in experiment [5] is on record as “excellent herbicidal activity against all tested species”.
On to `C#CCN1C(=O)C2(CC2)Oc2cc(F)c(-n3c(=O)cc(C(F)(F)F)n(CC#C)c3=O)cc21` [Example 41], for which the pest or weed control at 200 g/ha is 80 to 100% in the experiment with Lolium perenne [1] (second trial (Table 2)), 80 to 100% in experiment [2] (second trial (Table 2)), < 20% with Lolium perenne [3] (second trial (Table 2)) and 80 to 100% in experiment [4] (second trial (Table 2)). Also, the pest or weed control at 1000 g/ha in the experiment with Lolium perenne [1] (second trial (Table 2)) was in the range of 80 to 100%; in experiment [2] (second trial (Table 2)), 80 to 100%; in the experiment with Lolium perenne [3] (second trial (Table 2)), 20 to 80%; in experiment [4] (second trial (Table 2)), 80 to 100%. Further, the pest or weed control at 5000 g/ha (in the experiment on Lolium perenne [1] (second trial (Table 2)); in experiment [2] (second trial (Table 2)); in the experiment on Lolium perenne [3] (second trial (Table 2)); in experiment [4] (second trial (Table 2))) was 80 to 100% in each case.
For `C#CCN1C(=O)C2(CC2)Oc2cc(F)c(-n3c(=O)cc(C(F)(F)F)n(CC(=O)OC)c3=O)cc21` [Example 42], the pest or weed control at 200 g/ha in the experiment on Lolium perenne [1] (second trial (Table 2)) was < 20%; in experiment [2] (second trial (Table 2)), 20 to 80%; in the experiment with Lolium perenne [3] (second trial (Table 2)), 20 to 80%; in experiment [4] (second trial (Table 2)), 80 to 100%. Besides, the pest or weed control at 1000 g/ha in the experiment with Lolium perenne [1] (second trial (Table 2)) fell in the range of 20 to 80%; in experiment [2] (second trial (Table 2)) it was 80 to 100%; with Lolium perenne [3] (second trial (Table 2)), 20 to 80%; in experiment [4] (second trial (Table 2)), 80 to 100%. The pest or weed control at 5000 g/ha with Lolium perenne [1] (second trial (Table 2)) was in the range of 20 to 80%; in experiment [2] (second trial (Table 2)) it was 80 to 100%; in the experiment on Lolium perenne [3] (second trial (Table 2)) it was 80 to 100%; in experiment [4] (second trial (Table 2)), 80 to 100%.
